From patent US8431563B2 (priority 2010, dated 2013)
Read-outs that look alike come from different tables or passages of the source.

How the values were obtained:
[1] = molecular target: T1, interaction between glucokinase (GK) and glucokinase regulatory protein (GKRP) (Homo sapiens, UniProt Q14397); assay: biochemical; assay type: binding; conditions: avi-tagged GKRP, GK-fluorescein, AlphaScreen beads; read-out: GK-GKRP IC50 (Binding)
T1 sequence (Q14397 1-625): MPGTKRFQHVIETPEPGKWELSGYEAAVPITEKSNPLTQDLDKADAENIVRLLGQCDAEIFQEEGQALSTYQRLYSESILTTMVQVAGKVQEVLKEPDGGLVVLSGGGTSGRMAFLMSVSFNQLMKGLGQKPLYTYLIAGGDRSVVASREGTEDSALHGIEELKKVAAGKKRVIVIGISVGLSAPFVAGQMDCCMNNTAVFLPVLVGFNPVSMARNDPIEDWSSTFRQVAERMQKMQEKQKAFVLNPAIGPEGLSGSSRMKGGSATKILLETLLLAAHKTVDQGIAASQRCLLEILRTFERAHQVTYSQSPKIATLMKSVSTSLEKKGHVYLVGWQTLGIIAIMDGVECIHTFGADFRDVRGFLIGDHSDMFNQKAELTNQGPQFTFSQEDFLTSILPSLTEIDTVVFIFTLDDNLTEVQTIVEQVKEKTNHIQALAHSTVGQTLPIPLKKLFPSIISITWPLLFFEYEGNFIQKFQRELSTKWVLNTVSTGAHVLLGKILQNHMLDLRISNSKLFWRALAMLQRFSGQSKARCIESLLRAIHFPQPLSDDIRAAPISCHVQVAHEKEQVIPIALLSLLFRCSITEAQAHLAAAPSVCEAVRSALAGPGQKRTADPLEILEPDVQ
In short: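 Measures direct GK–GKRP binding in 20 mM Tris pH 7.5 containing 1 μM sorbitol-6-phosphate, 0.05% BSA and 1 mM DTT. Compound and avi-tagged GKRP sit 20 min at room temperature before GK-fluorescein addition (6 nM in the added buffer); read after 2 h dark incubation at room temperature.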

[2] = molecular target: T2, GKRP (Glucokinase Regulatory Protein) with human His-hepatic GK (Homo sapiens, UniProt Q14397); assay: biochemical; conditions: 13C-glucose-6-phosphate formation, 280 nM GKRP (10×), 30 nM GK (5×)
T2 sequence (Q14397 1-625): T1 sequence (Q14397 1-625)
In short: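 Product formation, 13C-glucose-6-phosphate from 13C-glucose, was measured directly by LC MS/MS after acetonitrile quench. The GK reaction ran 30 min at room temperature in Tris pH 7.5 buffer with 4 mM MgCl2 and 6% DMSO. The 5× enzyme stock was 30 nM His-tagged human hepatic glucokinase.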

[3] = read-out: GK-GKRP EC50 (LC MS/MS-2)

Cn1cnc(COC[C@H]2CN(S(=O)(=O)c3cccs3)CCN2c2ccc(C(C)(O)C(F)(F)F)cc2)c1 (mixture of isomers) [Example 119, 1,1,1-trifluoro-2-(4-((2R)-2-(((1-methyl-1H-imidazol-4-yl)methoxy)methyl)-4-(2-thiophenylsulfonyl)-1-piperazinyl)phenyl)-2-propanol]
IC50 [1]: 392 nM | EC50 [2, 3]: 169 nM

CCC1COCCN1C[C@H]1CN(S(=O)(=O)c2cccs2)CCN1c1ccc(C(C)(O)C(F)(F)F)cc1 (mixture of isomers) [Example 143, 2-(4-((2S)-2-((3-ethyl-4-morpholinyl)methyl)-4-(2-thiophenylsulfonyl)-1-piperazinyl)phenyl)-1,1,1-trifluoro-2-propanol]
IC50 [1]: 80 nM | EC50 [2, 3]: 36 nM

O=S(=O)(c1ccccc1)N1CCN(c2ncc(C(O)(C(F)(F)F)C(F)(F)F)cn2)[C@@H](CN2C3COCC2C(O)C3)C1 (mixture of isomers) [Example 80, 8-(((2S)-4-(phenylsulfonyl)-1-(5-(2,2,2-trifluoro-1-hydroxy-1-(trifluoromethyl)ethyl)-2-pyrimidinyl)-2-piperazinyl)methyl)-3-oxa-8-azabicyclo[3.2.1]octan-6-ol]
IC50 [1]: 125 nM | EC50 [2, 3]: 136 nM

CC1(C)C(=O)NCCN1C[C@H]1CN(S(=O)(=O)c2cccs2)CCN1c1ccc(C(C)(O)C(F)(F)F)cc1 (single isomer, unassigned) [Example 180 Peak #2]
IC50 [1]: 8 nM | EC50 [2, 3]: 42 nM

C[C@H]1COCCN1C[C@H]1CN(S(=O)(=O)c2ccc(N)nc2)CCN1c1ncc(C(O)(C(F)(F)F)C(F)(F)F)cn1 [Example 128, 2-(2-((2S)-4-((6-amino-3-pyridinyl)sulfonyl)-2-(((3S)-3-methyl-4-morpholinyl)methyl)-1-piperazinyl)-5-pyrimidinyl)-1,1,1,3,3,3-hexafluoro-2-propanol]
IC50 [1]: 27 nM | EC50 [2, 3]: 34 nM

CC(O)(c1ccc(N2CCN(S(=O)(=O)c3cccs3)CC2CN2C3COCC2C(O)C3)cc1)C(F)(F)F (single isomer, unassigned) [Example 77 Peak #3]
IC50 [1]: 29 nM | EC50 [2, 3]: 58 nM

CC(O)(c1ccc(N2CCN(S(=O)(=O)c3cccs3)C[C@@H]2CSc2ccccc2F)cc1)C(F)(F)F (mixture of isomers) [Example 219, 1,1,1-trifluoro-2-(4-((2R)-2-(((2-fluorophenyl)sulfanyl)methyl)-4-(2-thiophenylsulfonyl)-1-piperazinyl)phenyl)-2-propanol]
IC50 [1]: 14 nM | EC50 [2, 3]: 25 nM

CC(O)(c1ccc(N2CCN(S(=O)(=O)c3cccs3)C[C@@H]2CN2CCS(=O)(=O)CC2C2CC2)cc1)C(F)(F)F (mixture of isomers) [Example 87, 2-(4-((2S)-2-((3-cyclopropyl-1,1-dioxido-4-thiomorpholinyl)methyl)-4-(2-thiophenylsulfonyl)-1-piperazinyl)phenyl)-1,1,1-trifluoro-2-propanol]
IC50 [1]: 229 nM | EC50 [2, 3]: 246 nM

CC(O)(c1ccc(N2CCN(S(=O)(=O)c3cccs3)C[C@@H]2CN2C3CCCC2CC(O)C3)cc1)C(F)(F)F (mixture of isomers) [Example 141, 9-(((2S)-4-(2-thiophenylsulfonyl)-1-(4-(2,2,2-trifluoro-1-hydroxy-1-methylethyl)phenyl)-2-piperazinyl)methyl)-9-azabicyclo[3.3.1]nonan-3-ol (endo)]
IC50 [1]: 11 nM | EC50 ([2]; GK-GKRP EC50 (LC MS/MS-2)): 26 nM

O=S(=O)(c1cccs1)N1CCN(c2ncc(C(O)(C(F)(F)F)C(F)(F)F)cn2)[C@@H](CN2C3COCC2C(O)C3)C1 (single isomer, unassigned) [Example 79 Peak #2]
IC50 [1]: 32 nM | EC50 [2, 3]: 73 nM

CC(O)(c1ccc(N2CCN(S(=O)(=O)c3cccs3)C[C@@H]2CN(c2ccccc2)S(C)(=O)=O)cc1)C(F)(F)F (mixture of isomers) [Example 204, N-phenyl-N-(((2R)-4-(2-thiophenylsulfonyl)-1-(4-(2,2,2-trifluoro-1-hydroxy-1-methylethyl)phenyl)-2-piperazinyl)methyl)methanesulfonamide]
IC50 [1]: 4 nM | EC50 [2, 3]: 32 nM

COc1ccccc1CC1CN(S(=O)(=O)c2cccs2)CCN1c1ccc(C(O)(C(F)(F)F)C(F)(F)F)cc1 (racemic) [Example 174, 1,1,1,3,3,3-hexafluoro-2-(4-(2-(2-methoxybenzyl)-4-(thiophen-2-ylsulfonyl)piperazin-1-yl)phenyl)-2-propanol]
IC50 [1]: 167 nM | EC50 [2, 3]: 114 nM

CC(O)(c1ccc(N2CCN(S(=O)(=O)c3cccs3)C[C@@H]2CN2C3COCC2C(O)C3)cc1)C(F)(F)F (single isomer, unassigned) [Example 78 Peak #4]
IC50 [1]: 40 nM | EC50 [2, 3]: 46 nM

Nc1ccc(S(=O)(=O)N2CCN(c3ncc(C(O)(C(F)(F)F)C(F)(F)F)cn3)[C@@H](CN3C4COCC3CC(=O)C4)C2)cn1 [Example 99 nonan-7-one, 9-(((2S)-4-((6-amino-3-pyridinyl)sulfonyl)-1-(5-(2,2,2-trifluoro-1-hydroxy-1-(trifluoromethyl)ethyl)-2-pyrimidinyl)-2-piperazinyl)methyl)-3-oxa-9-azabicyclo[3.3.1]nonan-7-one]
IC50 [1]: 75 nM | EC50 [2, 3]: 97 nM

CC(O)(c1ccc(N2CCN(S(=O)(=O)c3cccs3)C[C@@H]2CN2[C@@H]3COC[C@H]2CC(=O)C3)cc1)C(F)(F)F (single isomer, unassigned) [Example 106 Peak#2]
IC50 [1]: 61 nM | EC50 [2, 3]: 142 nM

CC(O)(c1ccc(N2CCN(S(=O)(=O)c3cccs3)CC2CN2C3COCC2C(O)C3)cc1)C(F)(F)F (single isomer, unassigned) [Example 77 Peak #2]
IC50 [1]: 11 nM | EC50 [2, 3]: 19 nM

CC(O)(c1ccc(N2CCN(S(=O)(=O)c3cccs3)C[C@@H]2CNS(=O)(=O)c2cccnc2)cc1)C(F)(F)F (mixture of isomers) [Example 192, N-(((2S)-4-(2-thiophenylsulfonyl)-1-(4-(2,2,2-trifluoro-1-hydroxy-1-methylethyl)phenyl)-2-piperazinyl)methyl)-3-pyridinesulfonamide]
IC50 [1]: 103 nM | EC50 [2, 3]: 126 nM

CC(C)N(C[C@H]1CN(S(=O)(=O)c2cccs2)CCN1c1ccc(C(C)(O)C(F)(F)F)cc1)S(=O)(=O)c1ccccc1 (mixture of isomers) [Example 197, N-(1-methylethyl)-N-(((2R)-4-(2-thiophenylsulfonyl)-1-(4-(2,2,2-trifluoro-1-hydroxy-1-methylethyl)phenyl)-2-piperazinyl)methyl)benzenesulfonamide]
IC50 [1]: 215 nM | EC50 [2, 3]: 80 nM

CN(C)C(=O)CC1COCCN1C[C@H]1CN(S(=O)(=O)c2cccs2)CCN1c1ccc(C(C)(O)C(F)(F)F)cc1 (mixture of isomers) [Example 114, N,N-dimethyl-2-(4-(((2S)-4-(2-thiophenylsulfonyl)-1-(4-(2,2,2-trifluoro-1-hydroxy-1-methylethyl)phenyl)-2-piperazinyl)methyl)-3-morpholinyl)acetamide]
IC50 [1]: 90 nM | EC50 [2, 3]: 124 nM

CC(O)(c1cnc(N2CCN(S(=O)(=O)c3ccc(N)nc3)C[C@@H]2CC2CCOCC2)nc1)C(F)(F)F (mixture of isomers) [Example 131]
IC50 [1]: 124 nM | EC50 [2, 3]: 102 nM

CC(C)CS(=O)(=O)NC[C@H]1CN(S(=O)(=O)c2cccs2)CCN1c1ccc(C(C)(O)C(F)(F)F)cc1 (mixture of isomers) [Example 210, 2-methyl-N-(((2S)-4-(2-thiophenylsulfonyl)-1-(4-(2,2,2-trifluoro-1-hydroxy-1-methylethyl)phenyl)-2-piperazinyl)methyl)-1-propanesulfonamide]
IC50 [1]: 507 nM | EC50 [2, 3]: 249 nM

C[C@H]1C(=O)NCCN1C[C@H]1CN(S(=O)(=O)c2cccs2)CCN1c1ccc(C(C)(O)C(F)(F)F)cc1 (mixture of isomers) [Example 182, (3S)-3-methyl-4-(((2S)-4-(2-thiophenylsulfonyl)-1-(4-(2,2,2-trifluoro-1-hydroxy-1-methylethyl)phenyl)-2-piperazinyl)methyl)-2-piperazinone]
IC50 [1]: 46 nM | EC50 [2, 3]: 69 nM

CC(O)(c1ccc(N2CCN(S(=O)(=O)c3ccc(N)s3)C[C@@H]2Cc2ccccc2)cc1)C(F)(F)F (mixture of isomers) [Example 136, 2-(4-((2S)-4-((5-amino-2-thiophenyl)sulfonyl)-2-benzyl-1-piperazinyl)phenyl)-1,1,1-trifluoro-2-propanol]
IC50 [1]: 250 nM | EC50 [2, 3]: 146 nM
